# Laboratory results from US20060069132A1, “Azolecarboxamide herbicides” (priority 2004, published 2006).
# Columns and labels:
# Test in all cases: Test E pre-/postemergence herbicide test
# bermudagrass = format: in vivo, Cynodon dactylon
# Outline: (§1)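 Test chemicals in a non-phytotoxic solvent mixture with surfactant applied preemergence to planted seeds and postemergence to plants 2 to 18 cm tall (1- to 4-leaf stage). After 12 to 14 days in the greenhouse, injury rated visually against untreated controls on a 0–100 scale (0 no effect, 100 complete control).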
# large crabgrass = format: in vivo, Digitaria sanguinalis
# Outline: as §1
# johnsongrass = format: in vivo, Sorghum halepense
# Outline: as §1
# purple nutsedge = format: in vivo, Cyperus rotundus
# Outline: as §1
# mustard = format: in vivo, Brassica nigra
# Outline: as §1
# guineagrass = format: in vivo, Panicum maximum
# Outline: as §1
# dallisgrass = format: in vivo, Paspalum dilatatum
# Outline: as §1
# southern sandbur = format: in vivo, Cenchrus echinatus
# Outline: as §1
# Italian ryegrass = format: in vivo, Lolium multiflorum
# Outline: as §1
# common purslane = format: in vivo, Portulaca oleracea
# Outline: as §1
# common groundsel = format: in vivo, Senecio vulgaris
# Outline: as §1
# common chickweed = format: in vivo, Stellaria media
# Outline: as §1
# tropical spiderwort = format: in vivo, Commelina benghalensis
# Outline: as §1
# quackgrass = format: in vivo, Elytrigia repens
# Outline: as §1
# Canada horseweed = format: in vivo, Erigeron Canadensis
# Source text: Seeds of plant species selected from bipinnate beggarticks (Bidens bipinnata L.), hairy beggarticks (Bidens radiata Thuill.), bermudagrass (Cynodon dactylon (L.) Pers.), Surinam grass (Urochloa decumbens (Staph) R. D. Webster, previously named Brachiaria decumbens Stapf), large crabgrass (Digitaria sanguinalis (L.) Scop.), green foxtail (Setaria viridis (L.) P. Beauv.), goosegrass (Eleusine indica (L.) Gaertn.), johnsongrass (Sorghum halepense (L.) Pers.), kochia (Kochia scoparia (L.) Schrad.), pitted morningglory (Ipomoea lacunosa L.), purple nutsedge (Cyperus rotundus L.), common ragweed (Ambrosia elatior L.), mustard (Brassica nigra (L.) W. D. J. Koch), guineagrass (Panicum maximum Jacq.), dallisgrass (Paspalum dilatatum Poir.), barnyardgrass (Echinochloa crus-galli (L). P. Beauv.), southern sandbur (Cenchrus echinatus L.), common sowthistle (Sonchus oleraceous L.), prickly sida (Sida spinosa L.), Italian ryegrass (Lolium multiflorum Lam.), common purslane (Portulaca oleracea L.), broadleaf signalgrass (Brachiaria platyphylla (Griseb.) Nash), common groundsel (Senecio vulgaris L.), common chickweed (Stellaria media (L.) Vill/Cyr.), tropical spiderwort (Commelina benghalensis L.), annual bluegrass (Poa annua L.), downy bromegrass (Bromus tectorum L.), itchgrass (Rottboellia cochinchinensis (L.) L.f.), quackgrass (Elytrigia repens (L.) Nevski), Canada horseweed (Erigeron Canadensis L.), field bindweed (Convolvulus arvensis L.), spotted spurge (Euphorbia maculata L.), common mallow (Malva sylvestris (=s silvestris) L.), and Russian thistle (Salsola kali L. ssp. Ruthenica (Iljin) Soo) were planted and treated preemergence with test chemicals formulated in a non-phytotoxic solvent mixture which included a surfactant.
# At the same time, plants selected from these weed species were treated with postemergence applications of some of the test chemicals formulated in the same manner. Plants ranged in height from 2 to 18 cm (1- to 4-leaf stage) for postemergence treatments. Treated plants and controls were maintained in a greenhouse for 12 to 14 days, after which time all species were compared to controls and visually evaluated. Plant response ratings, summarized in Table E, are based on a scale of 0 to 100 where 0 is no effect and 100 is complete control. A dash (-) response means no test result.
# field bindweed = format: in vivo, Convolvulus arvensis
# Outline: as §1
# [1] = Postemergence, 500 g ai/ha, scale 0 to 100
# [2] = Postemergence, 250 g ai/ha, scale 0 to 100
# [3] = Preemergence, 62 g ai/ha, scale 0 to 100
# [4] = Preemergence, 125 g ai/ha, scale 0 (no effect) to 100 (complete control)
# [5] = Preemergence, 250 g ai/ha, scale 0 (no effect) to 100 (complete control)
# [6] = Preemergence, 500 g ai/ha, scale 0 (no effect) to 100 (complete control)
# [7] = postemergence, 125 g ai/ha, scale 0 to 100
# [8] = postemergence, 62 g ai/ha, scale 0 to 100
smiles,measurement,setting,value
"CCn1nc(C(C)(C)C)cc1C(=O)Nc1cc(C(=O)N(C)C)ccc1F [Compound 6, N-[5-[(dimethylamino)carbonyl]-2-fluorophenyl]-3-(1,1-dimethylethyl)-1-ethyl-1H-pyrazole-5-carboxamide]","Plant response rating, Bermudagrass",bermudagrass; [1],98
same,"Plant response rating, Bermudagrass",bermudagrass; [2],90
same,"Plant response rating, Bermudagrass",bermudagrass; [3],90
same,"Plant response rating, Bermudagrass",bermudagrass; [4],95
same,"Plant response rating, Bermudagrass",bermudagrass; [5],95
same,"Plant response rating, Bermudagrass",bermudagrass; [6],100
same,"Plant response rating, Bermudagrass",bermudagrass; [7],80
same,"Plant response rating, Bermudagrass",bermudagrass; [8],35
same,"Plant response rating, Crabgrass, Large",large crabgrass; [1],98
same,"Plant response rating, Crabgrass, Large",large crabgrass; [2],98
same,"Plant response rating, Crabgrass, Large",large crabgrass; [3],80
same,"Plant response rating, Crabgrass, Large",large crabgrass; [4],90
same,"Plant response rating, Crabgrass, Large",large crabgrass; [6],100
same,"Plant response rating, Crabgrass, Large",large crabgrass; [7],90
same,"Plant response rating, Crabgrass, Large",large crabgrass; [8],75
same,"Plant response rating, Johnsongrass",johnsongrass; [1],98
same,"Plant response rating, Johnsongrass",johnsongrass; [2],98
same,"Plant response rating, Johnsongrass",johnsongrass; [3],90
same,"Plant response rating, Johnsongrass",johnsongrass; [4],90
same,"Plant response rating, Johnsongrass",johnsongrass; [5],90
same,"Plant response rating, Johnsongrass",johnsongrass; [6],100
same,"Plant response rating, Johnsongrass",johnsongrass; [7],95
same,"Plant response rating, Johnsongrass",johnsongrass; [8],90
same,"Plant response rating, Nutsedge, Purple",purple nutsedge; [3],60
same,"Plant response rating, Nutsedge, Purple",purple nutsedge; [4],100
same,"Plant response rating, Nutsedge, Purple",purple nutsedge; [5],100
same,"Plant response rating, Nutsedge, Purple",purple nutsedge; [6],100
same,"Plant response rating, Nutsedge, Purple",purple nutsedge; [7],95
same,"Plant response rating, Nutsedge, Purple",purple nutsedge; [8],75
same,"Plant response rating, Black Mustard",mustard; [1],100
same,"Plant response rating, Black Mustard",mustard; [2],100
same,"Plant response rating, Black Mustard",mustard; [3],100
same,"Plant response rating, Black Mustard",mustard; [4],100
same,"Plant response rating, Black Mustard",mustard; [5],100
same,"Plant response rating, Black Mustard",mustard; [6],100
same,"Plant response rating, Black Mustard",mustard; [7],100
same,"Plant response rating, Black Mustard",mustard; [8],95
same,"Plant response rating, Guineagrass",guineagrass; [1],98
same,"Plant response rating, Guineagrass",guineagrass; [2],95
same,"Plant response rating, Guineagrass",guineagrass; [3],95
same,"Plant response rating, Guineagrass",guineagrass; [4],95
same,"Plant response rating, Guineagrass",guineagrass; [5],95
same,"Plant response rating, Guineagrass",guineagrass; [6],100
same,"Plant response rating, Guineagrass",guineagrass; [7],90
same,"Plant response rating, Guineagrass",guineagrass; [8],80
same,"Plant response rating, Dallisgrass",dallisgrass; [1],90
same,"Plant response rating, Dallisgrass",dallisgrass; [2],80
same,"Plant response rating, Dallisgrass",dallisgrass; [3],90
same,"Plant response rating, Dallisgrass",dallisgrass; [4],95
same,"Plant response rating, Dallisgrass",dallisgrass; [5],95
same,"Plant response rating, Dallisgrass",dallisgrass; [6],100
same,"Plant response rating, Dallisgrass",dallisgrass; [7],75
same,"Plant response rating, Dallisgrass",dallisgrass; [8],60
same,"Plant response rating, Sandbur",southern sandbur; [1],100
same,"Plant response rating, Sandbur",southern sandbur; [2],100
same,"Plant response rating, Sandbur",southern sandbur; [3],85
same,"Plant response rating, Sandbur",southern sandbur; [4],100
same,"Plant response rating, Sandbur",southern sandbur; [6],100
same,"Plant response rating, Sandbur",southern sandbur; [7],95
same,"Plant response rating, Sandbur",southern sandbur; [8],85
same,"Plant response rating, Ryegrass, Italian",Italian ryegrass; [1],98
same,"Plant response rating, Ryegrass, Italian",Italian ryegrass; [2],98
same,"Plant response rating, Ryegrass, Italian",Italian ryegrass; [3],90
same,"Plant response rating, Ryegrass, Italian",Italian ryegrass; [4],95
same,"Plant response rating, Ryegrass, Italian",Italian ryegrass; [6],100
same,"Plant response rating, Ryegrass, Italian",Italian ryegrass; [7],95
same,"Plant response rating, Ryegrass, Italian",Italian ryegrass; [8],80
same,"Plant response rating, Purslane",common purslane; [1],100
same,"Plant response rating, Purslane",common purslane; [2],100
same,"Plant response rating, Purslane",common purslane; [3],100
same,"Plant response rating, Purslane",common purslane; [4],100
same,"Plant response rating, Purslane",common purslane; [5],100
same,"Plant response rating, Purslane",common purslane; [6],100
same,"Plant response rating, Purslane",common purslane; [7],90
same,"Plant response rating, Purslane",common purslane; [8],75
same,"Plant response rating, Groundsel",common groundsel; [1],100
same,"Plant response rating, Groundsel",common groundsel; [2],100
same,"Plant response rating, Groundsel",common groundsel; [3],100
same,"Plant response rating, Groundsel",common groundsel; [4],100
same,"Plant response rating, Groundsel",common groundsel; [6],100
same,"Plant response rating, Groundsel",common groundsel; [7],95
same,"Plant response rating, Groundsel",common groundsel; [8],20
same,"Plant response rating, Chickweed",common chickweed; [1],100
same,"Plant response rating, Chickweed",common chickweed; [2],100
same,"Plant response rating, Chickweed",common chickweed; [3],90
same,"Plant response rating, Chickweed",common chickweed; [4],95
same,"Plant response rating, Chickweed",common chickweed; [5],95
same,"Plant response rating, Chickweed",common chickweed; [6],100
same,"Plant response rating, Chickweed",common chickweed; [7],100
same,"Plant response rating, Chickweed",common chickweed; [8],100
same,"Plant response rating, Spiderwort",tropical spiderwort; [1],95
same,"Plant response rating, Spiderwort",tropical spiderwort; [2],90
same,"Plant response rating, Spiderwort",tropical spiderwort; [3],70
same,"Plant response rating, Spiderwort",tropical spiderwort; [4],75
same,"Plant response rating, Spiderwort",tropical spiderwort; [5],80
same,"Plant response rating, Spiderwort",tropical spiderwort; [6],95
same,"Plant response rating, Spiderwort",tropical spiderwort; [7],75
same,"Plant response rating, Spiderwort",tropical spiderwort; [8],60
same,"Plant response rating, Quackgrass",quackgrass; [1],98
same,"Plant response rating, Quackgrass",quackgrass; [2],95
same,"Plant response rating, Quackgrass",quackgrass; [3],95
same,"Plant response rating, Quackgrass",quackgrass; [4],100
same,"Plant response rating, Quackgrass",quackgrass; [6],100
same,"Plant response rating, Quackgrass",quackgrass; [7],90
same,"Plant response rating, Quackgrass",quackgrass; [8],80
same,"Plant response rating, Horseweed",Canada horseweed; [1],100
same,"Plant response rating, Horseweed",Canada horseweed; [2],100
same,"Plant response rating, Horseweed",Canada horseweed; [3],100
same,"Plant response rating, Horseweed",Canada horseweed; [4],100
same,"Plant response rating, Horseweed",Canada horseweed; [5],100
same,"Plant response rating, Horseweed",Canada horseweed; [6],100
same,"Plant response rating, Horseweed",Canada horseweed; [7],100
same,"Plant response rating, Horseweed",Canada horseweed; [8],75
same,"Plant response rating, Bindweed, Field",field bindweed; [1],100
same,"Plant response rating, Bindweed, Field",field bindweed; [2],100
same,"Plant response rating, Bindweed, Field",field bindweed; [3],30
same,"Plant response rating, Bindweed, Field",field bindweed; [4],60
same,"Plant response rating, Bindweed, Field",field bindweed; [6],100
same,"Plant response rating, Bindweed, Field",field bindweed; [7],95
same,"Plant response rating, Bindweed, Field",field bindweed; [8],10
